For assay [1], the system named is non-small cell lung cancer cell line H460. Description: In vitro human cancer cell line cytotoxicity (proliferation) assay in H460, CellTiter-Glo, 72 hours. The assay is classed as cell-based. Particulars: H460 cells, DMSO condition (no AKR1C3 inhibitor), read-out: CTG H460: Avg IC50 (nM) [Assay Condition: DMSO]. The method in brief:
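H460 cells were seeded at 3×10^3 per well and grown 24 h at 37 °C, 5% CO2 before compound addition from 10 mM DMSO stocks. After 72 h further incubation, viability was measured by CellTiter-Glo, and IC50 values in nM were derived from the proliferation data.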
(In general: Cellular ATP, detected with luciferase, serves as a proxy for viable cell number.)

For assay [2] the test system is unchanged. Nature of the assay: H460 proliferation assay in the presence of 3 uM ASP9521 (AKR1C3 specific inhibitor). Format: cell-based, human. Particulars: H460 cells, CellTiter-Glo, 72 hours, in the presence of 3 uM ASP9521 added 4 hours prior to compounds; read-out: CTG H460: Avg IC50 (nM) [Assay Condition: ASP9521]. The method in brief:
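H460 cells pre-incubated 24 h, then exposed to compounds for 72 h at 37 °C, 5% CO2. Viability read by CellTiter-Glo. ASP9521 (3 uM, AKR1C3 inhibitor) added 4 h before compounds.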

SMILES strings stand for the structures.

In the case of `O=C1c2cc(Oc3c([N+](=O)[O-])ccc4c3OCCC4OP(=O)(N3CC3)N3CC3)ccc2CN1C1CC1` (single isomer, unassigned) [Example 139], the IC50 (usually the concentration at which inhibition is half-maximal) in assay [1] is less than 10 nM; in assay [2] it was 839 nM.

Take `O=[N+]([O-])c1ccc2c(c1Oc1cc(F)cc(-c3ncc(F)cn3)c1)CC[C@@H]2OP(=O)(N1CC1)N1CC1` [Example 364]: the IC50 is 10 to 50 nM in assay [1] (Homo sapiens, NCI-H460, 72 h) and 4030 nM in assay [2].

Take `O=[N+]([O-])c1ccc2c(c1Oc1cccc(OC3CCCC3)c1)CC[C@@H]2OP(=O)(N1CC1)N1CC1` [Example 469]: the IC50 in assay [1] was less than 10 nM; in assay [2] it was 1130 nM.

In the case of `O=[N+]([O-])c1ccc2c(c1Oc1cccc(-c3cccnc3)c1)CC[C@@H]2OP(=O)(N1CC1)N1CC1` [Example 310], the IC50 is less than 10 nM in assay [1] (Homo sapiens, NCI-H460, 72 h) and 2010 nM in assay [2].

`O=[N+]([O-])c1ccc2c(c1Oc1ccc(F)c(S(=O)(=O)C3CC3)c1)CC[C@@H]2OP(=O)(N1CC1)N1CC1` [Example 513]: the IC50 in assay [1] (Homo sapiens, NCI-H460, 72 h) was less than 10 nM; in assay [2], 682 nM.

As for `Cn1cncc1-c1cccc(Oc2c([N+](=O)[O-])ccc3c2CC[C@@H]3OP(=O)(N2CC2)N2CC2)c1` [Example 350], the IC50 in assay [1] (Homo sapiens, NCI-H460, 72 h) is less than 10 nM; in assay [2] it was 1870 nM.

Regarding `O=[N+]([O-])c1cc2c(cc1Oc1ccc(-c3ccccn3)cc1)C(OP(=O)(N1CC1)N1CC1)CC2` (centres unmarked) [Example 523], the IC50 in assay [1] is less than 10 nM; in assay [2] it was 2070 nM.

For `O=[N+]([O-])c1ccc2c(c1Oc1ccc(F)c(OC3CCCC3)c1)CCC2OP(=O)(N1CC1)N1CC1` (centres unmarked) [Example 476], the results for the IC50 in assay [1] and in assay [2] were less than 10 nM and 1090 nM, respectively.

On to `O=[N+]([O-])c1ccc2c(c1Oc1cccc(-n3cccn3)c1)CCC2OP(=O)(N1CC1)N1CC1` (centres unmarked) [Example 113], for which the IC50 was less than 10 nM in assay [1] (Homo sapiens, NCI-H460, 72 h) and 650 nM in assay [2].

Take `CC(OP(=O)(N1CC1)N1CC1)c1cc2cc(Oc3cccc(-c4ccccn4)c3)c([N+](=O)[O-])cc2o1` (centres unmarked) [Example 543]: the figures for the IC50 in assay [1] and in assay [2] were less than 10 nM and 2230 nM, respectively.

As for `O=[N+]([O-])c1cc2c(cc1Oc1cccc(-c3ccccc3)c1)C(OP(=O)(N1CC1)N1CC1)CC2` (single isomer, unassigned) [Example 169], the IC50 in assay [1] was less than 10 nM; in assay [2], 766 nM.

Turning to `O=[N+]([O-])c1ccc2c(c1Oc1ccc(F)c(-c3ccccc3)c1)CC[C@H]2OP(=O)(N1CC1)N1CC1` [Example 313], the concentration for half-maximal inhibition (IC50) in assay [1] (Homo sapiens, NCI-H460, 72 h) is less than 10 nM; in assay [2], 1260 nM.

With `O=C1c2cc(Oc3c([N+](=O)[O-])ccc4c3CC[C@H]4OP(=O)(N3CC3)N3CC3)ccc2CN1C1CC1` (single isomer, unassigned) [Example 38], the IC50 in assay [1] (Homo sapiens, NCI-H460, 72 h) is less than 10 nM; in assay [2], 537 nM.

`O=[N+]([O-])c1ccc2c(c1Oc1ccc(-n3cccn3)cc1)CCC2OP(=O)(N1CC1)N1CC1` (centres unmarked) [Example 424]: the figures for the IC50 in assay [1] and in assay [2] were less than 10 nM and 779 nM, respectively.

`O=[N+]([O-])c1ccc2c(c1Oc1cccc(S(=O)(=O)C3CC3)c1)CC[C@H]2OP(=O)(N1CC1)N1CC1` [Example 456]: the IC50 in assay [1] was less than 10 nM; in assay [2], 940 nM.

`O=C(c1cccc(Oc2c([N+](=O)[O-])ccc3c2CCC3OP(=O)(N2CC2)N2CC2)c1)N1CCC(F)(F)CC1` (centres unmarked) [Example 104]: the results for the 50% inhibitory concentration (IC50) in assay [1] and in assay [2] were less than 10 nM and 180 nM, respectively.

With `Cc1cncc(-c2ccc(Oc3c([N+](=O)[O-])ccc4c3CC[C@H]4OP(=O)(N3CC3)N3CC3)cc2)n1` [Example 285], the results for the IC50 in assay [1] and in assay [2] were less than 10 nM and 754 nM, respectively.

As to `O=[N+]([O-])c1ccc2c(c1Oc1cccc(-c3ccccn3)c1)CC[C@H]2OP(=O)(N1CC1)N1CC1` [Example 296], the IC50 in assay [1] (Homo sapiens, NCI-H460, 72 h) was less than 10 nM; in assay [2], 976 nM.

In the case of `O=C(c1cccc(Oc2c([N+](=O)[O-])ccc3c2CCC3OP(=O)(N2CC2)N2CC2)c1)N1CCCOCC1` (centres unmarked) [Example 105], the IC50 was 10 to 50 nM in assay [1] (Homo sapiens, NCI-H460, 72 h) and 1300 nM in assay [2].

The record behind these values is patent US20260167656A1, “PHOSPHORAMIDATE COMPOUNDS AND USES THEREOF” (ALLORION THERAPEUTICS INC, priority 2022, published 2026).
